Source: PubChem BioAssay AID246 (DTP/NCI, 2004)
Several values for one entry are separate records, joined by “and”; a condition that tells them apart may be missing. Equal entries are not always repeated. Inconclusive results and toxic doses are left out.

Tested on: BDF1 mice, P1081 chloroleukemia ip, survival T/C
Experiment: NCI In Vivo Anticancer Drug Screen. Data for tumor model P1081 Chloroleukemia (intraperitoneal) in B6D2F1 (BDF1) mice
Conditions: endpoint: mean survival time, higher = longer survival
Experimental: The antitumor activity of compounds was measured in mice bearing transplantable tumors. Survival or tumor size were measured and the results are expressed as the measurement made in the treated group (T) divided by the measurement made in the vehicle treated control group (C). The tumor model used in this assay is P1081 Chloroleukemia (intraperitoneal) in B6D2F1 (BDF1) mice

[1] = dose: 2.0 mg/kg/injection, schedule: Q01DX010 (ip), vehicle: saline
[2] = dose: 4.0 mg/kg/injection, schedule: Q01DX010 (ip), vehicle: saline
[3] = dose: 6.25 mg/kg/injection, schedule: Q01DX Z (sc), vehicle: steriod suspending solution
[4] = dose: 12.5 mg/kg/injection, schedule: Q01DX Z (sc), vehicle: steriod suspending solution
[5] = dose: 25.0 mg/kg/injection, schedule: Q01DX Z (sc), vehicle: steriod suspending solution
[6] = dose: 50.0 mg/kg/injection, schedule: Q01DX Z (sc), vehicle: steriod suspending solution
[7] = dose: 100.0 mg/kg/injection, schedule: Q01DX Z (sc), vehicle: steriod suspending solution
[8] = dose: 62.5 mg/kg/injection, schedule: Q01DX Z (sc), vehicle: steriod suspending solution
[9] = dose: 125.0 mg/kg/injection, schedule: Q01DX Z (sc), vehicle: steriod suspending solution
[10] = dose: 250.0 mg/kg/injection, schedule: Q01DX Z (sc), vehicle: steriod suspending solution
[11] = dose: 500.0 mg/kg/injection, schedule: Q01DX Z (sc), vehicle: steriod suspending solution
[12] = dose: 25.0 mg/kg/injection, schedule: Q01DX010 (ip), vehicle: saline
[13] = dose: 100.0 mg/kg/injection, schedule: Q01DX010 (ip), vehicle: saline
[14] = dose: 16.0 mg/kg/injection, schedule: Q01DX Z (ip), vehicle: saline
[15] = dose: 12.5 mg/kg/injection, schedule: Q01DX Z (ip), vehicle: carboxymethylcellulose (CMC)
[16] = dose: 25.0 mg/kg/injection, schedule: Q01DX Z (ip), vehicle: carboxymethylcellulose (CMC)

Nc1nc(F)nc2c1ncn2C1OC(CO)C(O)C1O (stereo not given)
T/C (dose: 0.25 mg/kg/injection, schedule: Q01DX010 (ip), vehicle: saline): 100 % of control
T/C (dose: 0.5 mg/kg/injection, schedule: Q01DX010 (ip), vehicle: saline): 94 % of control
T/C (dose: 1.0 mg/kg/injection, schedule: Q01DX010 (ip), vehicle: saline): 110 % of control and 100 % of control
T/C [1]: 111 % of control and 105 % of control
T/C [2]: 95 % of control

C[C@]12CCC(=O)C=C1CC[C@@H]1[C@@H]2C(=O)C[C@@]2(C)[C@H]1CC[C@]2(O)C(=O)CO
T/C [3]: 103 % of control
T/C [4]: 102 % of control
T/C [5]: 123 % of control and 102 % of control
T/C [6]: 111 % of control
T/C [7]: 116 % of control

COC12C(COC(N)=O)C3=C(C(=O)C(C)=C(N)C3=O)N1CC1C2N1C (stereo not given)
T/C (dose: 0.63 mg/kg/injection, schedule: Q01DX Z (ip), vehicle: carboxymethylcellulose (CMC)): 123 % of control
T/C (dose: 1.25 mg/kg/injection, schedule: Q01DX Z (ip), vehicle: carboxymethylcellulose (CMC)): 107 % of control
T/C (dose: 2.5 mg/kg/injection, schedule: Q01DX Z (ip), vehicle: carboxymethylcellulose (CMC)): 112 % of control
T/C (dose: 5.0 mg/kg/injection, schedule: Q01DX Z (ip), vehicle: carboxymethylcellulose (CMC)): 152 % of control

C[C@]12CCC(=O)C[C@H]1CC[C@@H]1[C@@H]2CC[C@@]2(C)[C@H]1CC[C@]2(C)O
T/C [8]: 114 % of control
T/C [9]: 100 % of control
T/C [10]: 110 % of control
T/C [11]: 112 % of control

CS(=O)(=O)OCCC(=O)N1CCN(C(=O)CCOS(C)(=O)=O)CC1
T/C [12]: 150 % of control and 285 % of control
T/C (dose: 50.0 mg/kg/injection, schedule: Q01DX010 (ip), vehicle: saline): 260 % of control and 277 % of control
T/C [13]: 120 % of control and 205 % of control

C[C@]12C=CC(=O)C=C1CC[C@@H]1[C@@H]2C(=O)C[C@@]2(C)[C@H]1CC[C@]2(O)C(=O)CO
T/C [3]: 114 % of control
T/C (dose: 12.5 mg/kg/injection, schedule: Q01DX010 (sc), vehicle: steriod suspending solution): 93 % of control and 100 % of control
T/C [4]: 111 % of control and 124 % of control
T/C (dose: 25.0 mg/kg/injection, schedule: Q01DX010 (sc), vehicle: steriod suspending solution): 112 % of control and 100 % of control and 101 % of control
T/C [5]: 105 % of control and 117 % of control
T/C (dose: 50.0 mg/kg/injection, schedule: Q01DX010 (sc), vehicle: steriod suspending solution): 107 % of control and 95 % of control and 100 % of control
T/C [6]: 105 % of control and 91 % of control
T/C (dose: 100.0 mg/kg/injection, schedule: Q01DX010 (sc), vehicle: steriod suspending solution): 112 % of control and 92 % of control and 93 % of control
T/C [7]: 92 % of control and 102 % of control
T/C (dose: 200.0 mg/kg/injection, schedule: Q01DX010 (sc), vehicle: steriod suspending solution): 92 % of control and 93 % of control
T/C (dose: 200.0 mg/kg/injection, schedule: Q01DX Z (sc), vehicle: steriod suspending solution): 98 % of control

CN(C)CC(=O)c1ccc(O)c(O)c1
T/C [14]: 114 % of control
T/C (dose: 31.0 mg/kg/injection, schedule: Q01DX Z (ip), vehicle: saline): 112 % of control
T/C (dose: 62.0 mg/kg/injection, schedule: Q01DX Z (ip), vehicle: saline): 118 % of control
T/C (dose: 125.0 mg/kg/injection, schedule: Q01DX Z (ip), vehicle: saline): 115 % of control

O=c1[nH]c(=O)n(C2CC(O)C(CO)O2)cc1Br (stereo not given)
T/C (dose: 16.0 mg/kg/injection, schedule: Q01DX Z (ip), vehicle: carboxymethylcellulose (CMC)): 86 % of control
T/C (dose: 31.0 mg/kg/injection, schedule: Q01DX Z (ip), vehicle: carboxymethylcellulose (CMC)): 107 % of control and 88 % of control
T/C (dose: 62.5 mg/kg/injection, schedule: Q01DX Z (ip), vehicle: carboxymethylcellulose (CMC)): 106 % of control and 99 % of control
T/C (dose: 125.0 mg/kg/injection, schedule: Q01DX Z (ip), vehicle: carboxymethylcellulose (CMC)): 88 % of control
T/C (dose: 250.0 mg/kg/injection, schedule: Q01DX Z (ip), vehicle: carboxymethylcellulose (CMC)): 101 % of control

CCC(=O)O[C@H]1CC[C@H]2[C@@H]3CCC4=CC(=O)CC[C@]4(C)[C@H]3CC[C@]12C
T/C (dose: 31.25 mg/kg/injection, schedule: Q01DX Z (sc), vehicle: steriod suspending solution): 92 % of control
T/C [8]: 111 % of control
T/C [9]: 107 % of control and 116 % of control
T/C [10]: 107 % of control
T/C [11]: 95 % of control
T/C (dose: 2000.0 mg/kg/injection, schedule: Q01DX Z (sc), vehicle: steriod suspending solution): 122 % of control

CN(C)[C@@H]1C(=O)C(C(N)=O)=C(O)[C@@]2(O)C(=O)C3=C(O)c4c(O)cccc4C[C@H]3C[C@@H]12
T/C (dose: 7.5 mg/kg/injection, schedule: Q01DX010 (ip), vehicle: saline): 100 % of control
T/C (dose: 15.0 mg/kg/injection, schedule: Q01DX010 (ip), vehicle: saline): 90 % of control and 100 % of control
T/C (dose: 30.0 mg/kg/injection, schedule: Q01DX010 (ip), vehicle: saline): 100 % of control and 105 % of control
T/C (dose: 60.0 mg/kg/injection, schedule: Q01DX010 (ip), vehicle: saline): 111 % of control

[I][Hg][CH2]C1COC([CH2][Hg][I])CO1 (stereo not given)
T/C (dose: 6.25 mg/kg/injection, schedule: Q01DX010 (ip), vehicle: saline): 110 % of control
T/C (dose: 7.5 mg/kg/injection, schedule: Q01DX Z (ip), vehicle: carboxymethylcellulose (CMC)): 97 % of control
T/C (dose: 12.5 mg/kg/injection, schedule: Q01DX010 (ip), vehicle: saline): 95 % of control
T/C (dose: 15.0 mg/kg/injection, schedule: Q01DX Z (ip), vehicle: carboxymethylcellulose (CMC)): 119 % of control
T/C [12]: 90 % of control
T/C (dose: 60.0 mg/kg/injection, schedule: Q01DX Z (ip), vehicle: carboxymethylcellulose (CMC)): 88 % of control and 103 % of control

NC(=O)c1cn(C2OC(CO)C(O)C2O)c2ncnc(N)c12 (stereo not given)
T/C (dose: 0.25 mg/kg/injection, schedule: Q01DX Z (ip), vehicle: carboxymethylcellulose (CMC)): 102 % of control

CC(=O)OCC1OC(n2ncc(=O)[nH]c2=O)C(OC(C)=O)C1OC(C)=O (stereo not given)
T/C (dose: 118.0 mg/kg/injection, schedule: Q01DX Z (ip), vehicle: other): 100 % of control
T/C (dose: 235.0 mg/kg/injection, schedule: Q01DX Z (ip), vehicle: other): 93 % of control
T/C (dose: 468.75 mg/kg/injection, schedule: Q01DX Z (ip), vehicle: alkali diluted with saline): 115 % of control
T/C (dose: 469.0 mg/kg/injection, schedule: Q01DX Z (ip), vehicle: other): 91 % of control
T/C (dose: 1875.0 mg/kg/injection, schedule: Q01DX Z (ip), vehicle: alkali diluted with saline): 121 % of control
T/C (dose: 3750.0 mg/kg/injection, schedule: Q01DX Z (ip), vehicle: alkali diluted with saline): 111 % of control

CS(=O)(=O)OCCCl
T/C [15]: 98 % of control
T/C (dose: 18.8 mg/kg/injection, schedule: Q01DX010 (ip), vehicle: saline): 105 % of control and 95 % of control
T/C [16]: 110 % of control
T/C (dose: 37.5 mg/kg/injection, schedule: Q01DX010 (ip), vehicle: saline): 110 % of control and 100 % of control
T/C (dose: 50.0 mg/kg/injection, schedule: Q01DX Z (ip), vehicle: carboxymethylcellulose (CMC)): 98 % of control
T/C (dose: 75.0 mg/kg/injection, schedule: Q01DX010 (ip), vehicle: saline): 105 % of control and 90 % of control
T/C (dose: 100.0 mg/kg/injection, schedule: Q01DX Z (ip), vehicle: carboxymethylcellulose (CMC)): 94 % of control
T/C (dose: 2000.0 mg/kg/injection, schedule: Q01DX Z (ip), vehicle: carboxymethylcellulose (CMC)): 103 % of control

O=C(Nc1ccc(NC2=NCCN2)cc1)c1ccc(C(=O)Nc2ccc(NC3=NCCN3)cc2)cc1
T/C [1]: 161 % of control
T/C (dose: 2.0 mg/kg/injection, schedule: Q01DX Z (ip), vehicle: saline): 96 % of control
T/C [2]: 300 % of control and 333 % of control
T/C (dose: 8.0 mg/kg/injection, schedule: Q01DX010 (ip), vehicle: saline): 300 % of control and 333 % of control
T/C (dose: 8.0 mg/kg/injection, schedule: Q01DX Z (ip), vehicle: saline): 153 % of control and 171 % of control
T/C [14]: 190 % of control
T/C (dose: 32.0 mg/kg/injection, schedule: Q01DX Z (ip), vehicle: saline): 96 % of control

CSc1ncnc2nc[nH]c12
T/C (dose: 6.25 mg/kg/injection, schedule: Q01DX Z (ip), vehicle: carboxymethylcellulose (CMC)): 100 % of control
T/C [15]: 100 % of control
T/C [16]: 93 % of control
T/C [13]: 115 % of control
T/C (dose: 200.0 mg/kg/injection, schedule: Q01DX010 (ip), vehicle: saline): 120 % of control
T/C (dose: 200.0 mg/kg/injection, schedule: Q01DX Z (ip), vehicle: carboxymethylcellulose (CMC)): 114 % of control
